Experimental data from patent US20090233998A1, “Desmosdumotins, the Method for Preparing the Same and Use as Anti-Tumor or Anti-AIDS Agents” (priority 2004, published 2009).
Converted amounts (≈) assume the structure as drawn. Like-named read-outs stand apart in the source and are kept apart here.

Tests used:
[1] = test system: KB (human epidermoid carcinoma of the nasopharynx); experiment: in vitro cytotoxicity against human tumor cell replication, KB; type: cell-based; conditions: for EC50: read-out: ED50 (the source's name)
From the text: (§1) Cancer cell used in cytotoxicity evaluation in vitro were all from human, including lung cancer cell line (A549), breast cancer cell line (MCF-7), ovarian cancer cell line (1A9), epidermoid nasopharyngeal carcinoma cell line (KB), vincristine-resistant cells (KB-VIN), melanoma cancer cell line (SK-MEL-2), ileocecal cancer cell line (HCT-8), renal carcinoma cell line (CAKI), bone cancer cell line (HOS), et al. the anti-cancer ability of the compound represented by half-effective amount (ED50). Control drug was V16 (Etoposide).

[2] = test system: 1A9 (human ovarian carcinoma); experiment: in vitro cytotoxicity against human tumor cell replication, 1A9; type: cell-based; conditions: for EC50: read-out: ED50 (the source's name)
From the text: as §1

[3] = test system: KB-VIN (vincristine-resistant KB cells, multi-drug resistant expressing P-glycoprotein); experiment: in vitro cytotoxicity against human tumor cell replication, KB-VIN; type: cell-based; conditions: for EC50: read-out: ED50 (the source's name)
From the text: as §1

[4] = test system: A549 (human lung carcinoma); experiment: in vitro cytotoxicity against human tumor cell replication, A549; type: cell-based; conditions: for EC50: read-out: ED50 (the source's name)
From the text: as §1

human tumor cell lines = experiment: in vitro evaluation against a panel of several cancer cell lines; type: cell-based
From the text: as §1

[5] = test system: MCF-7 (breast cancer cell line); experiment: in vitro cytotoxicity against human tumor cell replication, MCF-7; type: cell-based
From the text: as §1

[6] = test system: MCF-7 (breast cancer cell line); conditions: background section; cited from earlier work
[7] = test system: KB-VIN (vincristine-resistant KB cells, multi-drug resistant expressing P-glycoprotein); conditions: background section; cited from earlier work
[8] = test system: 1A9 (human ovarian carcinoma); conditions: IA9 ovarian cancer cell; background section; cited from earlier work
Sarcoma S180 = experiment: tumor-inhibiting test of mice S180; type: in vivo, Kunming mice; conditions: for Inhibition Rate: S180 tumor growth
Procedure: (§2) The tumor activity […] testing represented by acute toxicity test and tumor-inhibiting testing of mice S180, Method: LD50 of desmosdumotin C to Kunming mice by vein route was obtained by the general acute toxicity test method. Sarcoma S180 was hypodermic inoculated to mice, drug administrated, compared drug group with control group, inhibition rate was calculated, P value show the statistical difference. […].

[9] = test system: KB (human epidermoid carcinoma of the nasopharynx); conditions: parent KB cell line; background section; cited from earlier work
in vivo = conditions: both sexes, Kunming, mouse, in vivo, Kunming mice, single vein injection, half male/half female
Procedure: as §2

Kunming mice = experiment: in vivo; conditions: for Death Rate: Kunming, mouse, in vivo, iv, 14 days
Procedure: as §2

COC1=C(C)C(=O)C(=C(O)C=Cc2ccc(Br)cc2)C(=O)C1(C)C [Compound 2, 2-[1′-Hydroxy-3-(4-bromophenyl)-allylidene]-5-methoxy-4,6,6-trimethylcyclohex-4-ene-1,3-dione]
EC50 ([1]; Homo sapiens): 4.33 µM
EC50 ([2]; Homo sapiens): 2.8 µM
EC50 ([3]; Homo sapiens, KBVIN): 4.84 µM
EC50 ([4]; Homo sapiens): 3.57 µM

COC1=C(C)C(=O)C(=C(O)C=Cc2ccccc2OC)C(=O)C1(C)C [Compound 3, 2-[1′-Hydroxy-3-(2-methoxyphenyl)-allylidene]-5-methoxy-4,6,6-trimethylcyclohex-4-ene-1,3-dione]
EC50 ([1]; Homo sapiens): 10.5 µM
activity relative to desmosdumotin C (human tumor cell lines; fold of desmosdumotin C): 4 times
EC50 ([2]; Homo sapiens): 8.16 µM
EC50 ([3]; Homo sapiens, KBVIN): 8.45 µM
EC50 ([4]; Homo sapiens): 8.74 µM

COC1=C(C)C(=O)C(=C(O)C=Cc2cccc(OC)c2)C(=O)C1(C)C [Compound 4, 2-[1′-Hydroxy-3-(3-methoxyphenyl)-allylidene]-5-methoxy-4,6,6-trimethyl-cyclohex-4-ene-1,3-dione]
EC50 ([1]; Homo sapiens): 9.62 µM
anti-tumor activity compared with the leading compound (human tumor cell lines; versus desmosdumotin C): more significant anti-tumor activity than the leading compound
ED50 [2]: 0.7 µg/mL (≈ 2.04 µM)
EC50 ([2]; Homo sapiens): 8.45 µM
EC50 ([3]; Homo sapiens, KBVIN): 6.99 µM
EC50 ([4]; Homo sapiens): 8.16 µM

COC1=C(C)C(=O)C(=C(O)C=Cc2ccc(OC)cc2)C(=O)C1(C)C [Compound 5, 2-[1′-Hydroxy-3-(4-methoxyphenyl)-allylidene]-5-methoxy-4,6,6-trimethyl-cyclohex-4-ene-1,3-dione]
EC50 ([1]; Homo sapiens): 9.62 µM
EC50 ([2]; Homo sapiens): 7.28 µM
EC50 ([3]; Homo sapiens, KBVIN): 8.16 µM
EC50 ([4]; Homo sapiens): 6.99 µM

COC1=C(C)C(=O)C(=C(O)C=Cc2ccc(O)cc2)C(=O)C1(C)C [Compound 6, 2-[1′-Hydroxy-3-(4-hydroxyphenyl)-allylidene]-5-methoxy-4,6,6-trimethyl-cyclohex-4-ene-1,3-dione]
EC50 ([1]; Homo sapiens): 11.6 µM
EC50 ([2]; Homo sapiens): 8.86 µM
EC50 ([3]; Homo sapiens, KBVIN): 11.6 µM
EC50 ([4]; Homo sapiens): 9.48 µM

COC1=C(C)C(=O)C(=C(O)C=Cc2ccco2)C(=O)C1(C)C [Compound 7, 2-(3′-Furan-2″-yl-1′-hydroxy-allylidene)-5-methoxy-4,6,6-trimethyl-cyclohex-4-ene-1,3-dione]
EC50 [1]: 32.7 µM
EC50 [2]: 26.1 µM
EC50 [3]: 29 µM
EC50 [4]: 33 µM

COC1=C(C)C(=O)C(=C(O)C=Cc2cccs2)C(=O)C1(C)C [Compound 8, 2-(1′-Hydroxy-3′-thiophen-2″-yl-allylidene)-5-methoxy-4,6,6-trimethyl-cyclohex-4-ene-1,3-dione]
EC50 [1]: 17.2 µM
EC50 [2]: 12.5 µM
EC50 [3]: 10.7 µM
EC50 [4]: 14.1 µM

COC1=C(C)C(=O)C(=C(O)C=Cc2nccs2)C(=O)C1(C)C [Compound 9]
EC50 [1]: 13.4 µM
EC50 [2]: 10.9 µM
EC50 [3]: 9.37 µM
EC50 [4]: 10.9 µM

CC1=C(O)C2=C(OC(c3ccccc3)CC2=O)C(C)(C)C1=O (stereo not drawn) [Compound 11, 7-hydroxyl-6,8,8-trimethyl-2-phenyl-2,3-dihydrogen-8H-chromene-4,5-dione]
ED50 [1]: 10.5 µg/mL (≈ 35.2 µM)
ED50 [5]: >5 µg/mL
ED50 [2]: 8.0 µg/mL (≈ 26.8 µM)
ED50 [3]: 7.5 µg/mL (≈ 25.1 µM)
ED50 [4]: 13.5 µg/mL (≈ 45.3 µM)

CC1=C(O)C(C)(C)C(=O)/C(=C(O)\C=C\c2ccccc2)C1=O [Compound 12, 2-[(1′-hydroxy-2′-ene-3′-phenyl)propenylene]-5-hydroxy-4,6,6-trimethyl-1,3-cyclohexene(4,5)-dione]
ED50 [1]: 10.5 µg/mL (≈ 35.2 µM)
ED50 [5]: > 5 µg/mL
ED50 [2]: 8.0 µg/mL (≈ 26.8 µM)
ED50 [3]: 6.5 µg/mL (≈ 21.8 µM)
ED50 [4]: 9.0 µg/mL (≈ 30.2 µM)

COC1=C(C)C(=O)C(=C(O)C=Cc2ccccc2)C(=O)C1(C)C [Compound 13, 2-[(1′-hydroxy-2′-ene-3′-phenyl)propenylene)-5-methoxy-4,6,6-trimethyl-1,3-cyclohexene (4,5)-diketone]
ED50 [1]: 4.1 µg/mL (≈ 13.1 µM)
ED50 [5]: > 5 µg/mL
ED50 [2]: 3.63 µg/mL (≈ 11.6 µM)
ED50 [3]: 2.9 µg/mL (≈ 9.28 µM)
ED50 [4]: > 5 µg/mL

COC1=CC(=O)c2c(oc(-c3ccccc3)cc2=O)C1(C)C [Compound 14, 7-methoxy-8,8-dimethyl-2-phenyl-8H-chromene-4,5-dione]
ED50 [1]: 1.8 µg/mL (≈ 6.07 µM)
ED50 [2]: 0.7 µg/mL (≈ 2.36 µM)
ED50 [4]: 2.0 µg/mL (≈ 6.75 µM)

CC1=C(O)C(C)(C)c2oc(-c3ccccc3)cc(=O)c2C1=O [Desmosdumotin B, 7-hydroxyl-6,8,8-trimethyl-2-phenyl-8H-chromene-4,5-dione]
ED50 [1]: >40 µg/mL
ED50 [5]: >5 µg/mL
ED50 [2]: 36.0 µg/mL (≈ 121 µM)
ED50 [3]: 2.0 µg/mL (≈ 6.75 µM)
ED50 [4]: 28.0 µg/mL (≈ 94.5 µM)

COC1=C(C)C(=O)/C(=C(O)/C=C/c2ccccc2)C(=O)C1(C)C [Desmosdumotin C, 2-[(1′-hydroxy-2′-ene-3′-phenyl)propenylene]-5-methoxy-4,6,6-trimethyl-1,3-cyclohexene (4,5)-dione]
ED50 [6]: < 3.8 µg/mL
EC50 ([1]; Homo sapiens): 20.8 µM
EC50 ([5]; Homo sapiens, MCF7, read-out: ED50 (the source's name)): 12.8 µM
ED50 [7]: < 5.6 µg/mL
EC50 ([2]; Homo sapiens): 12.8 µM
EC50 ([3]; Homo sapiens, KBVIN): 17.9 µM
ED50 [8]: < 4.0 µg/mL
Tumor Weight X ± SD (Sarcoma S180; S180, 2.5 mg/kg iv × 10qd): 1.99 ± 0.18
Tumor Weight X ± SD (Sarcoma S180; S180, 5 mg/kg iv × 10qd): 1.62 ± 0.22
Tumor Weight X ± SD (Sarcoma S180; S180, 10 mg/kg iv × 10qd): 1.51 ± 0.21
Inhibition Rate (Sarcoma S180; 2.5 mg/kg iv × 10qd): 30.18%
Inhibition Rate (Sarcoma S180; 5 mg/kg iv × 10qd): 43.16%
Inhibition Rate (Sarcoma S180; 10 mg/kg iv × 10qd): 47.02%
ED50 [9]: < 6.5 µg/mL
LD50 (in vivo; read-out: LD50): > 46 mg/kg
LD50 (in vivo; read-out: LD50 (95% CL)): 39.8 to 53.1 mg/kg
LD50 (Kunming mice; Kunming mice, single vein injection, half male/half female): 46.0 mg/kg
Death Rate (Kunming mice; both, 32.8 mg/kg): 0%
Death Rate (Kunming mice; both, 40.96 mg/kg): 40%
Death Rate (Kunming mice; both, 51.2 mg/kg): 70%
Death Rate (Kunming mice; both, 64 mg/kg): 90%
Death Rate (Kunming mice; both, 80 mg/kg): 100%
Death Rate (Kunming mice; female, 32.8 mg/kg): 0%
Death Rate (Kunming mice; female, 40.96 mg/kg): 40%
Death Rate (Kunming mice; female, 51.2 mg/kg): 80%
Death Rate (Kunming mice; female, 64 mg/kg): 80%
Death Rate (Kunming mice; female, 80 mg/kg): 100%
Death Rate (Kunming mice; male, 32.8 mg/kg): 0%
Death Rate (Kunming mice; male, 40.96 mg/kg): 40%
Death Rate (Kunming mice; male, 51.2 mg/kg): 60%
Death Rate (Kunming mice; male, 64 mg/kg): 100%
Death Rate (Kunming mice; male, 80 mg/kg): 100%
